Where two headings read alike, the source gives them in different places.
Assays:
[1] = Prodrug stability assay in bio-relevant media (FaSSIF with Pancreatin, simulated gastrointestinal tract conditions); type: in vitro ADME; conditions: % parent prodrug remaining at 5 h vs 0 h, 37° C., 0.5 mg/mL Pancreatin in FaSSIF, HPLC area ratio
Experimental: Prodrug Stability Assay in Bio-Relevant Media
The following assay was employed to evaluate the stability of the prodrugs in simulated gastrointestinal tract conditions. Preparation of fasted state simulated intestinal fluid (FaSSIF) using Phares SIF Powder was carried out according to protocols from Phare Drug Delivery AG (Baselland, Switzerland). For sample preparation, 10 μL stock solutions (10 mM) of prodrug substance in DMSO was added to 990 μL of 0.5 mg/mL Pancreatin solution (Fisher CAS#8049-47-6) in FaSSIF. Two samples were prepared for each compound at initial. If the sample was clear solution at the beginning, ran one sample directly as initial by HPLC; if the sample was not clear at starting, diluted the sample by 100% ACN. Put the other sample under 37° C. and observed the sample at 5 h time-point. At 5 h time point, if the sample was clear solution then performed HPLC analysis directly; if it was not clear solution, diluted the sample by 100% ACN and assayed by HPLC. All the samples were vortexed for 3 min and observed before injection. For the diluted samples, the area will be multiplied by a factor when data analysis. The analysis was carried out with an Agilent 1100 series HPLC with autosampler. The column was usually a Poroshell 120 EC -C18, 4.6×50 mm, 2.7 μm. The flow rate was 1.8 mL/min, and the injection volume was 5 or 10 μL. UV detection was in the range 210-400 nm. The mobile phase consisted of solvent A (water plus 10 mM tetrabutylammonium bromide) and solvent B (acetonitrile) with a gradient of 90% solvent A at 0 min changing to 95% solvent B over 6 min, maintained for 1.5 min, then reverting to 90% solvent A over 1.6 min. The area of the parent in prodrug at 5h time point was divided by the area of the parent in prodrug at 0 h time point, to generate the % claimed parent ratio, which are summarized in Table 2 for GI Tract stability.

[2] = test system: HIV-1 (H9/IIIB strain); test: Multiple round HIV-1 infection assay (Viking assay) in MT4-GFP cells; type: cell-based; conditions: MT4-GFP cells infected with HIV-1 H9/IIIB, inhibition of reproductive ratio R0
Method in brief: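 MT4-gag-GFP cells infected overnight with HIV-1 H9/IIIB at MOI ~0.01, then incubated with compound (10-point 3-fold dilutions, typically 8.4 μM–0.42 nM) in RPMI with 10% or 50% normal human serum. Green cells counted at ~48 and ~72 h; IC50 from inhibition of reproductive ratio R0, 4-parameter fit.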

[3] = Human immunodeficiency virus 1, IIIB, 10% normal human serum, read-out: Viking, IC50 (10% NHS)
[4] = Human immunodeficiency virus 1, IIIB, 50% normal human serum, read-out: Viking, IC50 (50% NHS)
[5] = 10% normal human serum, read-out: Viking, IC50 (10% NHS)
[6] = 50% normal human serum, read-out: Viking, IC50 (50% NHS)

GI Tract stability [1] [%] | Compound | IC50 [2, 3] [nM] | IC50 [2, 4] [nM] | IC50 [2, 5] [nM] | IC50 [2, 6] [nM]
79.61 | CCCCOC(=O)C(C)(C)NP(=O)(CO[C@H](C)Cn1cnc2c(N)ncnc21)O[C@@H](C)C(=O)OC(C)C (stereo partly drawn) [Example 25, Butyl 2-((((((R)-1-(6-amino-9H-purin-9-yl)propan-2-yl)oxy)methyl)(((S)-1-isopropoxy-1-oxopropan-2-yl)oxy)phosphoryl)amino)-2-methylpropanoate] | 2.44 | 10.5 |  | 
99.44 | CC(C)OC(=O)COP(=O)(CO[C@H](C)Cn1cnc2c(N)ncnc21)NC1(C(=O)OC(C)C)CCCC1 (stereo partly drawn) [Example 45, Isopropyl 1-((((((R)-1-(6-amino-9H-purin-9-yl)propan-2-yl)oxy)methyl)(2-isopropoxy-2-oxoethoxy)phosphoryl)amino) cyclopentane-1-carboxylate] | 15.6 | 62.6 |  | 

The remaining lines, values behind:

Compound | GI Tract stability [1] [%] | IC50 [2, 3] [nM] | IC50 [2, 4] [nM] | IC50 [2, 5] [nM] | IC50 [2, 6] [nM]
CC(C)OC(=O)[C@H](C)OP(=O)(CO[C@H](C)Cn1cnc2c(N)ncnc21)NC(C)(C)C(=O)OC1CCCC1 (single isomer, unassigned) [Example 18A] | 76.31 |  | 16.5 | 6.59 | 
CC(C)OC(=O)[C@H](C)OP(=O)(CO[C@H](C)Cn1cnc2c(N)ncnc21)NC(C)(C)C(=O)OC(C)C (single isomer, unassigned) [Example 1A] | 85.74 | 14.7 |  |  | 61.1
CCCCCOC(=O)C(C)(C)NP(=O)(CO[C@H](C)Cn1cnc2c(N)ncnc21)O[C@@H](C)C(=O)OC(C)C (single isomer, unassigned) [Example 2B] | 91.95 |  |  | 18.2 | 70.9
CCCOC(=O)C(C)(C)NP(=O)(CO[C@H](C)Cn1cnc2c(N)ncnc21)O[C@@H](C)C(=O)OC(C)C (stereo partly drawn) [Example 22, Propyl 2-((((((R)-1-(6-amino-9H-purin-9-yl)propan-2-yl)oxy)methyl)(((S)-1-isopropoxy-1-oxopropan-2-yl)oxy)phosphoryl)amino)-2-methylpropanoate] | 79.24 | 4.65 | 17.7 |  | 

From patent US10449208B2, “Antiviral prodrugs of tenofovir” (Merck Sharp & Dohme Corp., priority 2016, dated 2019)
